Source: patent publication US6455271B1, “Identification of novel antimicrobial agents using membrane potential indicator dyes” (XOMA Technology, Ltd, priority 1998, dated 2002)
In brackets after ≈: the same amount, converted by molar mass. Like-named read-outs stand apart in the source and are kept apart here. Square brackets hold non-standard residues; d marks the D form. Peptide text beside a SMILES is read from it.

What was measured:
[1] = tested on: Madin-Derby canine kidney epithelial (MDCK) cells
Experimental: The same procedure was also carried out using mammalian Madin-Derby canine kidney epithelial (MDCK) cells (ATCC Accession No. CCL34). The MDCK cells were cultured until confluent in MEM media supplemented with 10% fetal calf serum (FCS) and L-glutamine. The cells were harvested and resuspended to approximately 1-2×10^6 cells/mL in RPMI media, treated with XMP.391 or XMP.445 at concentrations varying from 5 μg/mL to 100 μg/mL, and incubated for 1 hour. The cells were then stained with DiOC6(3) for 30 minutes and fluorescence intensity was determined in the same manner as described above for C. albicans.
(§1) The relative effect of varying concentrations of the antifungal agent miconazole on fungal C. albicans cells treated with membrane potential indicator dye DiOC6(3) [Molecular Probes], mammalian MDCK cells treated with DiOC6(3) and mammalian MDCK cells treated with PI, was assessed as described above in Examples 1 and 2, except that fungal C. albicans or mammalian MDCK cells were resuspended to a concentration of 1×10^6 cells/mL.

C. albicans SLU#1 strain = assay type: cell-based, Candida albicans
[2] = tested on: Candida albicans strain SLU#1; assay: Flow cytometry of fungal cells treated with test agent and membrane potential dye DiOC6(3); assay type: cell-based; settings: for concentration at which loss of fungal cell viability occurs: C. albicans SLU#1; for change in DiOC6(3) fluorescence intensity (mean channel from baseline) vs. concentration: C. albicans, 1 hour incubation with agent, 10 ng/mL DiOC6(3), FL1 530 nm, FIG. 1 / FIG. 3
Experimental: A stock fungal cell suspension was prepared as follows. Fungi (Candida albicans strain SLU#1) were cultured on Sabouraud's dextrose agar plates [1 L water, 10 g neopeptone, 20 g dextrose, 15 g Bacto Agar]. One or two colonies from the agar plate were inoculated into 5 mL of Sabouraud's dextrose broth (SDB) [1 L water, 10 g neopeptone, 20 g dextrose] in a sterile 10 mL polypropylene tube and incubated for about 18 hours at 30° C. After this incubation, 4 mL of the fungal culture was inoculated into a flask containing 100 mL of SDB and incubated for about 5 hours or until log growth phase was reached. The culture was centrifuged at 3000 rpm for 5 minutes (Sorvall RT6000B centrifuge), the supernatant was decanted and the pellets were resuspended in a total of 30 mL of SDB. Fungal cell concentration was determined either by absorbance at 570 nm or by diluting 1:10 with Trypan Blue and counting the number of fungal cells using a hemacytometer. The suspension was diluted with SDB to obtain a stock fungal cell suspension of approximately 1-2×10^6 CFU/mL.
Stock 1 mg/mL solutions of peptides XMP.391 and XMP.445 were prepared in saline, and six 2-fold serial dilutions were prepared using phosphate buffered saline (PBS). The fungal cell suspension was divided into 1 mL aliquots, and approximately 20 μL of each serial dilution of XMP.391 or XMP.445 peptide solution was added to an aliquot of fungal cell suspension to obtain final peptide concentrations of 0.313, 0.625, 1.25, 2.5, 5, 10 and 20 μg/mL in the aliquots. No peptide solution was added to the auto-fluorescence and baseline controls. The aliquots were incubated for 1 hour at 30° C. After the incubation, all aliquots were centrifuged at 3000 rpm for 5 minutes (Sorvall RT6000B) and the supernatant removed. The auto-fluorescence control aliquot was resuspended in 1 mL of SDB; the remainder of the samples and the baseline control were resuspended in 1 mL of 10 ng/mL DiOC6(3)/SDB. The auto-fluorescence control thus contained fungal cells in SDB alone (without XMP peptide and without dye), while the baseline control contained fungal cells with dye (but without XMP peptide). […]
The samples were analyzed for fluorescence on the FACScan flowcytometer [Becton-Dickinson, Mountain View, Calif.] using the fl1 detector at a wavelength of 530 nm using the following parameters:
The auto-fluorescence control was used for gating and fluorescence sensitivity was determined using the baseline control. The percent change in fluorescent intensity, expressed as mean channels, was determined by dividing the difference between the sample and baseline values by the baseline value: (sample fl1−baseline fl1)/baseline fl1×100.

C. albicans SLU#1 = assay: Propidium iodide (PI) uptake by fungal cells, flow cytometry; assay type: cell-based, Candida albicans; settings: C. albicans SLU#1, 10 μg/mL PI, FL2 585 nm; FIG. 2
Description: As in Example 1, the auto-fluorescence control contained fungal or mammalian cells in media alone (without XMP peptide and without PI), while the baseline control contained fungal or mammalian cells with PI (but without XMP peptide). Because it is a viability dye, PI is taken up only when cells are dying or dead; the fluorescent intensity of PI-treated samples should increase with the number of dead cells and should be maximal with 100% dead cells. Thus, for this experiment, a positive control was also prepared (containing 100% dead cells) by resuspending cells in 1 mL of 70% ethanol during the last 10 minutes of the initial 1-hour incubation; this positive control thus contained 100% dead cells with PI (but without XMP peptide). Samples were analyzed for PI uptake on the FACScan using the fl2 detector at a wavelength of 585 nm. The auto-fluorescence sample was used for gating, while the fluorescence sensitivity was determined by the positive control and the PI uptake threshold was determined by the baseline control. The percent change in fluorescent intensity in mean channels was determined using the same equation used in Example 1, and the percentage of cells with PI uptake (ie., dead cells) was calculated.

MDCK cells = tested on: MDCK cells
Experimental: as §1

CACO-2 and MDCK cells = assay type: in vitro ADME
Experimental: Various BPI-derived peptides were screened for oral absorption in in vitro screening assays using CACO-2 and MDCK cells. Cultured monolayers of CACO-2 (Human colon carcinoma) [Audus, K. L., et al. Pharm. […] The cells were grown to confluency and allowed to differentiate. The integrity of the monolayers was determined by measuring the transepithelial resistance. The cells were incubated with peptide on the apical side for 2.5 hours in MDCK screening or 4 hours for CACO-2 screening. The transepithelial transport of the peptide was measured by quantitative HPLC analysis of the incubation media on the basolateral side of the cells. Radiolabelled mannitol and cortisone were used as positive controls.

Candida albicans, SLU-1 = assay: 28-day comparative survival efficacy study in mice systemically infected with Candida albicans, oral gavage; assay type: in vivo; settings: for mortality vs dextrose-treated controls: male DBA/2 mice, eight times, 28 days
Experimental: XMP.445 was tested for activity upon oral administration (oral activity) in a 28-day comparative survival efficacy study in mice systemically infected with Candida albicans. Specifically, male DBA/2 mice (Charles River Laboratories) six weeks of age were dosed with 7.9×10^4 Candida albicans, SLU-1 in 100 μl intravenously via the tail vein in a single dosage on day 0. Treatment began immediately thereafter with 400 μl oral gavage of either 0.5% dextrose, or XMP.445 in 0.5% dextrose at levels of either 10 mg/kg or 20 mg/kg every other day for a total of eight times. Amphotericin B (Fungizone®) was administered intravenously at 0.5 mg/kg as a positive control every other day for a total of eight times. Twice-day monitoring (once daily on weekends and holidays) for mortality was performed.

fungal cells = assay: Confocal microscopy localization of membrane potential indicator dye in fungal cells; assay type: cell-based; settings: DiOC6(3) 10 ng/mL or MitoTracker Red CM-H2Xros 1 μg/mL, 1 hour peptide incubation
Experimental: Confocal microscopy provides focused fluorescence detection, one plane or slice at a time, at a focus level that allows unobstructed localization of fluorescence within cells. A suspension of 1×10^6 fungal cells/mL was prepared as described above in Example 1 and 1 mL was dispensed into each of four Eppendorf microcentrifuge tubes. Two μL of 1 mg/mL XMP.445 (in saline) was added to two tubes and all four tubes were incubated for 1 hour at 30° C. After the incubation, all tubes were centrifuged in an Eppendorf 5415 centrifuge. The supernatant was removed and the pellet resuspended in 1 mL of SDB. The membrane potential indicator dye DiOC6(3) (diluted in SDB from a stock solution of 2 mg/mL in EtOH) was added to one set of peptide-treated and untreated tubes to a final concentration of 10 ng/mL. The membrane potential indicator dye MitoTracker™ Red CM-H2Xros (from a freshly prepared solution of 500 μg/mL in DMSO) was added to another set of peptide-treated and untreated tubes to a final concentration of 1 μg/mL. The tubes were incubated at 30° C. for 30 min. After the incubation the tubes were centrifuged and the supernatant removed. The pellets were resuspended in 100 μL of 30% glycerol/PBS solution. Three μL from each tube was pipetted onto a microscope slide with a No. 1 cover glass and placed onto a Zeiss 510 Confocal Microscope that uses LSM Version 2.01 software. […]

bacterial growth = settings: background statement; cited from earlier work
[3] = background statement; cited from earlier work

CC[C@H](C)[C@H](NC(=O)[C@H](CC(C)C)NC(=O)[C@H](Cc1c[nH]c2ccccc12)NC(=O)CNC(=O)[C@@H](NC(=O)[C@@H](N)CCCCN)C(C)C)C(=O)N[C@@H](CCC(N)=O)C(=O)N[C@@H](CC(C)C)C(=O)N[C@@H](Cc1ccccc1)C(=O)N[C@@H](Cc1c[nH]cn1)C(=O)N[C@@H](CCCCN)C(=O)N[C@@H](CCCCN)C(=O)O [XMP.391] (H-KVGWLIQLFHKK-OH; N-terminus and C-terminus assumed)
change in DiOC6(3) fluorescence intensity in mammalian cells [1]: no substantial increase in fluorescence intensity
minimum fungicidal concentration (C. albicans SLU#1 strain): 2 mg/L (≈ 1.34 µM)

CC[C@H](C)[C@H](NC(=O)[C@H](CC(C)C)NC(=O)[C@H](Cc1c[nH]c2ccccc12)NC(=O)CNC(=O)[C@H](NC(=O)[C@H](N)CCCCN)C(C)C)C(=O)N[C@@H](CCC(N)=O)C(=O)N[C@@H](CC(C)C)C(=O)N[C@@H](Cc1ccccc1)C(=O)N[C@@H](Cc1c[nH]cn1)C(=O)N[C@H](CCCCN)C(=O)N[C@H](CCCCN)C(=O)O [XMP.445] (H-[dK][dV]GWLIQLFH[dK][dK]-OH; N-terminus and C-terminus assumed)
concentration at which loss of fungal cell viability occurs [2]: about 4 μg/mL
change in DiOC6(3) fluorescence intensity (mean channel from baseline) vs. concentration [2]: concentration-dependent increase in fluorescence intensity
change in DiOC6(3) fluorescence intensity in mammalian cells [1]: no substantial increase in fluorescence intensity
minimum fungicidal concentration (C. albicans SLU#1 strain): 4 mg/L (≈ 2.67 µM)
fungal cell viability by PI uptake (C. albicans SLU#1): reduction of fungal cell viability or fungal cell death
mammalian cell viability by PI uptake (MDCK cells; MDCK cells, PI, XMP.445 even at a concentration of 50-fold or greater): did not substantially affect viability of mammalian cells
intestinal absorption screening outcome (CACO-2 and MDCK cells): potential orally available compound
mortality vs dextrose-treated controls (Candida albicans, SLU-1; oral gavage 10 mg/kg every other day): significant improvement (p-value of 0.025)
mortality vs dextrose-treated controls (Candida albicans, SLU-1; oral gavage 10 mg/kg or 20 mg/kg every other day): improvements in mortality compared with the dextrose-treated controls
oral activity (study conclusion) (Candida albicans, SLU-1; mice systemically infected with C. albicans, oral gavage): has oral antifungal activity
fluorescence intensity and localization by confocal microscopy vs untreated cells (fungal cells): increased fluorescence intensity that was localized at the mitochondria

Clc1ccc(COC(Cn2ccnc2)c2ccc(Cl)cc2Cl)c(Cl)c1 (stereo not drawn) [miconazole, reference compound]
concentration at which loss of fungal cell viability occurs [2]: less than or equal to 1 μg/mL
change in DiOC6(3) fluorescence intensity (mean channel from baseline) vs. concentration [2]: concentration-dependent increase in fluorescence intensity
mammalian cell viability by PI uptake (MDCK cells): increase in fluorescence intensity indicating cell death

gentamicin
concentration required to produce a therapeutic effect (bacterial growth): 8 µg/mL
concentration that produces a toxic effect [3]: 12 µg/mL
